Source: patent US9492471B2, “Methods of treating a disease or disorder associated with Bruton'S Tyrosine Kinase” (Celgene Avilomics Research, Inc., priority 2013, dated 2016)
Where two headings read alike, the source gives them in different places.

Columns and labels:
Experiment in all cases: HotSpot kinase profiling
Type in all cases: biochemical
CDK6/cyclin D3 = target: T1, CDK6/cyclin D3 (Homo sapiens, UniProt Q00534)
T1 construct: purchased Reaction Biology Corp
In short: (§1)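 Activity is measured by radiolabel transfer captured on P81 filters after a 2 h room-temperature reaction of kinase, substrate and cofactors. Values are percent inhibition against DMSO.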

IRAK4 = target: T2, IRAK4 (Homo sapiens, UniProt Q9NWZ3)
T2 construct: purchased Reaction Biology Corp
T2 sequence (Q9NWZ3 1-460): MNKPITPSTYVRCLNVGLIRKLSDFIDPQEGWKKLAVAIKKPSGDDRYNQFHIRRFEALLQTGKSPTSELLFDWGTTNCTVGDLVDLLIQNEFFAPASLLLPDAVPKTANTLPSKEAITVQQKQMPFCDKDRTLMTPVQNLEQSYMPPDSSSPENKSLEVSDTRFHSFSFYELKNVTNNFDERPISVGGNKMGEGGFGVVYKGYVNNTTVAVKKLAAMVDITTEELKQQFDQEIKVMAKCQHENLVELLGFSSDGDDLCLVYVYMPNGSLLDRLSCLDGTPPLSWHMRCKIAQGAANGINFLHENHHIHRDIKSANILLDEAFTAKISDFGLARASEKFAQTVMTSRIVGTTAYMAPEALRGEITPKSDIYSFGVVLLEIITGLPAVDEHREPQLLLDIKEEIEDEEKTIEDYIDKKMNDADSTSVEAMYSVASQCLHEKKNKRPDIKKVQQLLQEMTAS
In short: as §1

JNK2 = target: T3, JNK2 (Homo sapiens, UniProt P45984)
T3 construct: purchased Reaction Biology Corp
T3 sequence (P45984 whole entry): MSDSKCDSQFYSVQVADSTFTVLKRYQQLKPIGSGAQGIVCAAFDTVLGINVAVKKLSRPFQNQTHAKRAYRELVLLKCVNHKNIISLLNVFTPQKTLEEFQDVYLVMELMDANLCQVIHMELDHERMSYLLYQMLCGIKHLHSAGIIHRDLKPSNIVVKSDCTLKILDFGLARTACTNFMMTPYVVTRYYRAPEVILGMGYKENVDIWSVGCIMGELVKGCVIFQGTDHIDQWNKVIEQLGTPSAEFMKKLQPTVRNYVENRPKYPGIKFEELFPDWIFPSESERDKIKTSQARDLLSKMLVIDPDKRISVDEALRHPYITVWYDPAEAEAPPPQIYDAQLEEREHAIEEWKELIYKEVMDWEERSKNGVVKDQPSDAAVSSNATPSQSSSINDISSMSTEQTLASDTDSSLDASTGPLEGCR
In short: as §1

NEK2 = target: T4, NEK2 (Homo sapiens, UniProt P51955)
T4 construct: purchased Reaction Biology Corp
T4 sequence (P51955 1-445): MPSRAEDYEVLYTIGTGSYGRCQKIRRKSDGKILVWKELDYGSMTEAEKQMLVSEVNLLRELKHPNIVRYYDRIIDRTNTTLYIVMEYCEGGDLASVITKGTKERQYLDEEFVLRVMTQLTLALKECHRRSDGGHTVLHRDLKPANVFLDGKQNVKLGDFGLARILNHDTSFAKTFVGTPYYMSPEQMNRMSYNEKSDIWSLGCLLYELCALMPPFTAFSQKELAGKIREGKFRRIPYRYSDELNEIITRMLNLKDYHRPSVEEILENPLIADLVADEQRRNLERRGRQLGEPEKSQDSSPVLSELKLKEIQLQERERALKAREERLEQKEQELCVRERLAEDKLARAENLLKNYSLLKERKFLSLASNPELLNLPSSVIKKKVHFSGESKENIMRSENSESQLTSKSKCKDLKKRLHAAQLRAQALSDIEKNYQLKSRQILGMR
In short: as §1

NEK6 = target: T5, NEK6 (Homo sapiens, UniProt Q9HC98)
T5 construct: purchased Reaction Biology Corp
T5 sequence (Q9HC98 whole entry): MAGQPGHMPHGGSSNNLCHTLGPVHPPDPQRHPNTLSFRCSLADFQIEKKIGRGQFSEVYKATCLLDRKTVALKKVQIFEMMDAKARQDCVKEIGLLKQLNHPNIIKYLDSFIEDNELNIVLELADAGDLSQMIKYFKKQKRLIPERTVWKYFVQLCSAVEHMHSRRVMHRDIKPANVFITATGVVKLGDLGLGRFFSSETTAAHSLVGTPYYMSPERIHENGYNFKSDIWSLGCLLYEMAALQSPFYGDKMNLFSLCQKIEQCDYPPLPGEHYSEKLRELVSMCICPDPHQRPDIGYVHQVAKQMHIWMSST
In short: as §1

RIPK3 = target: T6, RIPK3 (Homo sapiens, UniProt Q9Y572)
T6 construct: purchased Reaction Biology Corp
T6 sequence (Q9Y572 whole entry): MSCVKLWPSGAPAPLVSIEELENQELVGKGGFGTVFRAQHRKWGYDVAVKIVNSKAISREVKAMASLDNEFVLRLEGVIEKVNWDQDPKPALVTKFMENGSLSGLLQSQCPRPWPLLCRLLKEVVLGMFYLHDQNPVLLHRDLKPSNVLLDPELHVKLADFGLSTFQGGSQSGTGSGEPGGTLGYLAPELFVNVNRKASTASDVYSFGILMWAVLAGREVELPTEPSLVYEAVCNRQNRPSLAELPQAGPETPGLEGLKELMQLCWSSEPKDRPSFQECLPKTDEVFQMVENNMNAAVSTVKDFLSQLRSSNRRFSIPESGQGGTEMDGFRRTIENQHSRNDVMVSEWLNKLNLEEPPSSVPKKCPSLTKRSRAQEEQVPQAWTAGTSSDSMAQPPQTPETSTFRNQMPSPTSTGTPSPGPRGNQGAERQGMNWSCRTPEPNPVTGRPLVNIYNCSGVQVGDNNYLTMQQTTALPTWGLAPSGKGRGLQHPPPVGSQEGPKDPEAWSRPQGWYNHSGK
In short: as §1

SIK2 = target: T7, SIK2 (Homo sapiens, UniProt Q9H0K1)
T7 construct: purchased Reaction Biology Corp
T7 sequence (Q9H0K1 whole entry): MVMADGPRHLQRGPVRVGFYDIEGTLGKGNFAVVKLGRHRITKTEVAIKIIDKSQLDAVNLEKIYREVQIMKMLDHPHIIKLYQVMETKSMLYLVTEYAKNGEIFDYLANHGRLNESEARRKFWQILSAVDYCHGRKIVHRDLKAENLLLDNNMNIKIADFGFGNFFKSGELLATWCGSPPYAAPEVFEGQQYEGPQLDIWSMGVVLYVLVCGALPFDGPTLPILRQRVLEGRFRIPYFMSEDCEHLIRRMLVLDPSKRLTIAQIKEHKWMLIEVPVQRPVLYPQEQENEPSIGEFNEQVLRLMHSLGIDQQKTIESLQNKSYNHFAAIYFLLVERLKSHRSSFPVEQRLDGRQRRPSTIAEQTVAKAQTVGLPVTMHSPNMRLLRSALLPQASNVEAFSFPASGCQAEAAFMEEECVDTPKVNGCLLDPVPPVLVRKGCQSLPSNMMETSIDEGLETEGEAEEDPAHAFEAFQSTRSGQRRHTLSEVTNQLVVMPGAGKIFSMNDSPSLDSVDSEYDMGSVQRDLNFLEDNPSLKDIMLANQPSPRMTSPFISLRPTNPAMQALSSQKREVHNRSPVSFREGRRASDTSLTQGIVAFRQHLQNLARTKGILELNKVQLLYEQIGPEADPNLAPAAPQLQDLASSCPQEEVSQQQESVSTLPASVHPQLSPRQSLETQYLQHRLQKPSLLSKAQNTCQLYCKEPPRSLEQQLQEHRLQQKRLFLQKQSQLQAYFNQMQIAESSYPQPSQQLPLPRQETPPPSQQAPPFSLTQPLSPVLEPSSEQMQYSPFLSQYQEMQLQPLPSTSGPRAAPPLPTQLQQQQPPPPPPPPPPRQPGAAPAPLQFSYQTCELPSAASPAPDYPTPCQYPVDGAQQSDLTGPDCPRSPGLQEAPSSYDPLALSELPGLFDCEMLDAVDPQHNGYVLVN
In short: as §1

TLK1 = target: T8, TLK1 (Homo sapiens, UniProt Q9UKI8)
T8 construct: purchased Reaction Biology Corp
T8 sequence (Q9UKI8 1-766): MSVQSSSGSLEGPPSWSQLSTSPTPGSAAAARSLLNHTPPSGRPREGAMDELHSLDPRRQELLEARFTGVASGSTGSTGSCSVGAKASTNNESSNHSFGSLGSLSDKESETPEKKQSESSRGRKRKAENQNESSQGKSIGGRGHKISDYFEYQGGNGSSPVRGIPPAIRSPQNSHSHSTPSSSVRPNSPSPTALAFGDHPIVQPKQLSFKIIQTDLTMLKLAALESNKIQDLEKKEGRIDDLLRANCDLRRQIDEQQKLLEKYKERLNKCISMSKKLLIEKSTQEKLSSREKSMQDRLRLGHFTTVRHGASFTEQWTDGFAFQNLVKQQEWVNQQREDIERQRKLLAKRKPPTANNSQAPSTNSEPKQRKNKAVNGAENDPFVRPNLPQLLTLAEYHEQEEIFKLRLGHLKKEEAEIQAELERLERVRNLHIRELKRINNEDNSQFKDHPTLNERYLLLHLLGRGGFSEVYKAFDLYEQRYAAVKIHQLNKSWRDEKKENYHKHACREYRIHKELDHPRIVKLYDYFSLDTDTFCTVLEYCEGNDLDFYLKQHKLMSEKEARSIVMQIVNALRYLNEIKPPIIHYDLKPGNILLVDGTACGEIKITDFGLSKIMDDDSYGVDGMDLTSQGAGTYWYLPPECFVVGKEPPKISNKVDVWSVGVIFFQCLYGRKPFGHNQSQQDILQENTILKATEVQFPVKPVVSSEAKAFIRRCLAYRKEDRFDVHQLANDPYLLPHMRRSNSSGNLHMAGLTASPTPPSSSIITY
In short: as §1

[1] = read-out: % Enzyme Activity (relative to DMSO controls) Run 1
[2] = read-out: % Enzyme Activity (relative to DMSO controls) Run 2

T1 sequence (Q00534 whole entry): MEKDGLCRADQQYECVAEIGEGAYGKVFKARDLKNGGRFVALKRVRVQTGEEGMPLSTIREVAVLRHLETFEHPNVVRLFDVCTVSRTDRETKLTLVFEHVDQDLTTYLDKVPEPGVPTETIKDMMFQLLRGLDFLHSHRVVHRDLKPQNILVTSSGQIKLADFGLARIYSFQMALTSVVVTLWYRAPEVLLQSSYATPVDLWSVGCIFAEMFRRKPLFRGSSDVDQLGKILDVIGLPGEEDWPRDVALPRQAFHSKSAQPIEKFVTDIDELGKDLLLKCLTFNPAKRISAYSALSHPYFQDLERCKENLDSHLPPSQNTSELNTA
T1 sequence (P30281 whole entry partner): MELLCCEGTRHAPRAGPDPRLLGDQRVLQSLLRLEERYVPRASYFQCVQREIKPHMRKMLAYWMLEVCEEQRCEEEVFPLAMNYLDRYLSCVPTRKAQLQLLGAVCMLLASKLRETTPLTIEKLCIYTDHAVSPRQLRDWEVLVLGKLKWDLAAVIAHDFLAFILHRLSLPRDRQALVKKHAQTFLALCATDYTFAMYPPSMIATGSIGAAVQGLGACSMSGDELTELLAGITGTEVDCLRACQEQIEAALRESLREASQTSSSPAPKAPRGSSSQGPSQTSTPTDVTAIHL

Q: Which results are given for C=CC(=O)Nc1cccc(Nc2nc(Nc3ccc(OCCOC)c(F)c3)ncc2F)c1 [Compound 2]?
A: inhibition at 3 µM (CDK6/cyclin D3): 0.16%; remaining activity at 3 µM (CDK6/cyclin D3; [1]): 99.5%; remaining activity at 3 µM (CDK6/cyclin D3; [2]): 100%; inhibition at 3 µM (IRAK4): 12.4%; remaining activity at 3 µM (IRAK4; [1]): 88.6%; remaining activity at 3 µM (IRAK4; [2]): 86.5%; inhibition at 3 µM (JNK2): 6.22%; remaining activity at 3 µM (JNK2; [1]): 92.5%; remaining activity at 3 µM (JNK2; [2]): 95.1%; inhibition at 3 µM (NEK2): -4.44%; remaining activity at 3 µM (NEK2; [1]): 102%; remaining activity at 3 µM (NEK2; [2]): 107%; inhibition at 3 µM (NEK6): -5.69%; remaining activity at 3 µM (NEK6; [1]): 106%; remaining activity at 3 µM (NEK6; [2]): 105%; inhibition at 3 µM (RIPK3): -18.8%; remaining activity at 3 µM (RIPK3; [1]): 117%; remaining activity at 3 µM (RIPK3; [2]): 121%; inhibition at 3 µM (SIK2): 43.3%; remaining activity at 3 µM (SIK2; [1]): 56.3%; remaining activity at 3 µM (SIK2; [2]): 57.1%; inhibition at 3 µM (TLK1): -2.91%; remaining activity at 3 µM (TLK1; [1]): 102%; remaining activity at 3 µM (TLK1; [2]): 103%
